Results taken from ChEMBL document CHEMBL4342442, “Usnic Acid Enaminone-Coupled 1,2,3-Triazoles as Antibacterial and Antitubercular Agents” (J Nat Prod, 2020).
Activity calls are given as the source filed them. The rule behind the calls is not given here.

Assays:
[1] = tested on: Mycobacterium tuberculosis; test: Antitubercular activity against Mycobacterium tuberculosis H37Rv assessed as reduction in microbial growth after 7 days by alamar blue assay; assay type: functional; conditions: 168 h
[2] = tested on: Mycobacterium tuberculosis; test: Antitubercular activity against Mycobacterium tuberculosis H37Rv assessed as log reduction in bacterial population at 10 ug/ml under starvation condition after 7 days by MPN assay; assay type: functional
[3] = tested on: Staphylococcus aureus; test: Antibacterial activity against Staphylococcus aureus MTCC 96 assessed as diameter of zone of inhibition at 200 ug/ml after 24 hrs by agar well diffusion method; assay type: functional
[4] = tested on: Staphylococcus epidermidis; test: Antibacterial activity against Staphylococcus epidermidis assessed as diameter of zone of inhibition at 200 ug/ml after 24 hrs by agar well diffusion method; assay type: functional
[5] = tested on: Bacillus subtilis; test: Antibacterial activity against Bacillus subtilis MTCC 441 assessed as diameter of zone of inhibition at 200 ug/ml after 24 hrs by agar well diffusion method; assay type: functional; conditions: MTCC 441, 24 h, read-out: DIZ
[6] = tested on: Escherichia coli; test: Antibacterial activity against Escherichia coli MTCC 443 assessed as diameter of zone of inhibition at 200 ug/ml after 24 hrs by agar well diffusion method; assay type: functional
[7] = tested on: Pseudomonas aeruginosa; test: Antibacterial activity against Pseudomonas aeruginosa MTCC 741 assessed as diameter of zone of inhibition at 200 ug/ml after 24 hrs by agar well diffusion method; assay type: functional
[8] = tested on: Klebsiella pneumoniae; test: Antibacterial activity against Klebsiella pneumoniae MTCC 618 assessed as diameter of zone of inhibition at 200 ug/ml after 24 hrs by agar well diffusion method; assay type: functional
[9] = tested on: Staphylococcus aureus; test: Antibacterial activity against Staphylococcus aureus MTCC 96 assessed as reduction in microbial growth after 24 hrs by CLSI based microdilution method; assay type: functional; conditions: MTCC 96, 24 h
[10] = tested on: Staphylococcus epidermidis; test: Antibacterial activity against Staphylococcus epidermidis assessed as reduction in microbial growth after 24 hrs by CLSI based microdilution method; assay type: functional
[11] = tested on: Bacillus subtilis; test: Antibacterial activity against Bacillus subtilis MTCC 441 assessed as reduction in microbial growth after 24 hrs by CLSI based microdilution method; assay type: functional; conditions: MTCC 441, 24 h
[12] = tested on: Escherichia coli; test: Antibacterial activity against Escherichia coli MTCC 443 assessed as reduction in microbial growth after 24 hrs by CLSI based microdilution method; assay type: functional; conditions: MTCC 443, 24 h
[13] = tested on: Pseudomonas aeruginosa; test: Antibacterial activity against Pseudomonas aeruginosa MTCC 741 assessed as reduction in microbial growth after 24 hrs by CLSI based microdilution method; assay type: functional; conditions: MTCC 741, 24 h
[14] = tested on: Klebsiella pneumoniae; test: Antibacterial activity against Klebsiella pneumoniae MTCC 618 assessed as reduction in microbial growth after 24 hrs by CLSI based microdilution method; assay type: functional; conditions: MTCC 618, 24 h
[15] = tested on: CHO-K1; test: Cytotoxicity against CHOK1 cells assessed as reduction in cell viability after 24 hrs by MTT assay; assay type: cell-based; conditions: Cricetulus griseus, CHO-K1, 24 h
[16] = Cytotoxicity against HEK cells assessed as reduction in cell viability after 24 hrs by MTT assay; assay type: cell-based, Homo sapiens
[17] = Homo sapiens, HEK293, 24 h, read-out: IC50

CC(=O)c1c(O)c(C)c(O)c2c1OC1=CC(=O)/C(=C(/C)NCc3cn(CC(=O)c4ccc5ccccc5c4)nn3)C(=O)C12C (stereo unspecified)
MIC [1]: 5.3 µM | FC [2]: 2.1 | diameter of the inhibition zone (DIZ) [3]: inactive | diameter of the inhibition zone (DIZ) [4]: inactive | zone of inhibition at 200 µg/mL [5]: 11 mm | diameter of the inhibition zone (DIZ) [6]: inactive | diameter of the inhibition zone (DIZ) [7]: inactive | diameter of the inhibition zone (DIZ) [8]: inactive | MIC [9]: > 350 µM | MIC [10]: > 350 µM | MIC [11]: 169 µM | MIC [12]: > 350 µM | MIC [13]: > 350 µM | MIC [14]: > 350 µM | IC50 [15]: 67.4 µM | IC50 [16]: Non-Toxic

CC(=O)c1c(O)c(C)c(O)c2c1OC1=CC(=O)/C(=C(/C)NCc3cn(CC(=O)c4cccc(C(F)(F)F)c4)nn3)C(=O)C12C (stereo unspecified)
MIC [1]: 41 µM | diameter of the inhibition zone (DIZ) [3]: inactive | diameter of the inhibition zone (DIZ) [4]: inactive | zone of inhibition at 200 µg/mL [5]: 15 mm | diameter of the inhibition zone (DIZ) [6]: inactive | diameter of the inhibition zone (DIZ) [7]: inactive | diameter of the inhibition zone (DIZ) [8]: inactive | MIC [9]: > 350 µM | MIC [10]: > 350 µM | MIC [11]: 40.9 µM | MIC [12]: > 350 µM | MIC [13]: > 350 µM | MIC [14]: > 350 µM | IC50 [15]: 25.6 µM | IC50 [16, 17]: 91.3 µM

CC(=O)c1c(O)c(C)c(O)c2c1OC1=CC(=O)/C(=C(/C)NCc3cn(CCN4C(=O)c5ccccc5S4(=O)=O)nn3)C(=O)C12C (stereo unspecified)
MIC [1]: 2.5 µM | FC [2]: 2.8 | IC50 [15]: 12.1 µM | IC50 [16, 17]: 91.8 µM

COc1ccccc1N1CCN(C(=O)Cn2cc(CN/C(C)=C3\C(=O)C=C4Oc5c(C(C)=O)c(O)c(C)c(O)c5C4(C)C3=O)nn2)CC1 (stereo unspecified)
MIC [1]: 9.5 µM | diameter of the inhibition zone (DIZ) [3]: inactive | diameter of the inhibition zone (DIZ) [4]: inactive | zone of inhibition at 200 µg/mL [5]: 10 mm | diameter of the inhibition zone (DIZ) [6]: inactive | diameter of the inhibition zone (DIZ) [7]: inactive | diameter of the inhibition zone (DIZ) [8]: inactive | MIC [9]: > 350 µM | MIC [10]: > 350 µM | MIC [11]: 305 µM | MIC [12]: > 350 µM | MIC [13]: > 350 µM | MIC [14]: > 350 µM | IC50 [15]: 40.4 µM | IC50 [16]: Non-Toxic

CC(=O)c1c(O)c(C)c(O)c2c1OC1=CC(=O)/C(=C(/C)NCc3cn(CC(=O)c4ccc(F)c(F)c4)nn3)C(=O)C12C (stereo unspecified)
MIC [1]: 5.4 µM | FC [2]: 2.5 | diameter of the inhibition zone (DIZ) [3]: inactive | diameter of the inhibition zone (DIZ) [4]: inactive | zone of inhibition at 200 µg/mL [5]: 12 mm | diameter of the inhibition zone (DIZ) [6]: inactive | diameter of the inhibition zone (DIZ) [7]: inactive | diameter of the inhibition zone (DIZ) [8]: inactive | MIC [9]: > 350 µM | MIC [10]: > 350 µM | MIC [11]: 173 µM | MIC [12]: > 350 µM | MIC [13]: > 350 µM | MIC [14]: > 350 µM | IC50 [15]: 53.4 µM | IC50 [16, 17]: 52 µM
